# Source: patent US10285984B2, “Methods and compositions for improving gut microbiota population” (SHANGHAI JIAO TONG UNIVERSITY, priority 2012, dated 2019)
# Legend:
# Format in all cases: in vivo, Wistar rats
# gut microbiota = test: Gut microbiota structure in rat feces by 454 pyrosequencing and multivariate statistics (PCoA, MANOVA, RDA, Shannon-Wiener index)
# Source text: (§1) These examples use Wistar rats (8 weeks old, male) as testing subjects and berberine as a representative compound. 40 Wistar rats were acclimatized for two weeks and were subsequently randomly divided into four groups: normal diet group (NCD), normal diet plus berberine treatment (NCD+BBR), high fat diet (HFD), and high fat diet plus berberine treatment (HFD+BBR). Each group continued for another 18 weeks. During these 18 weeks, the NCD+BBR group received intragastric administration of berberine at stated levels. Feces samples from each animal were collected at various time points. 454 pyrosequencing was performed to analyze gut microbiota structure. Gas chromatography was used to assay the short-chain fatty acid level of the feces. In addition, weight, food intake, insulin sensitivity, systemic inflammation levels were monitored and measured during the 18-week period.
# The gut microbiota populations in rats from all four experimental groups were analyzed by 454 pyrosequencing and multivariate statistical analyses. […] Diet also exerted statistically significant influence on gut microbiota population.
# 268 berberine-related OTU were identified by redundancy analysis (RDA) and the detailed results are shown in FIG. 2, TABLE 1, and TABLE 2. 93 OTU (SEQ_ID_NO 1-93) (TABLE 1) are enriched by berberine, while 175 OTU (SEQ_ID_NO 94-268) (TABLE 2) were suppressed or eliminated.
# The taxonomy of these 268 OTU was analyzed using RDP classifier with representative sequence of the OTU. […] Among them, Blautia, Allobaculum, Prevotella, Bacteroides, and Butyricimonas are relatively abundant and are capable of producing short-chain fatty acid.
# [1] = test system: gut short-chain fatty acid; test: Short-chain fatty acid level in rat feces by gas chromatography; settings: oral 100 mg/kg body weight, FIG. 3
# Source text: as §1, with “period. The levels of short-chain fatty acid (including acetic acid, propionic acid, butyric acid, valeric acid, isobutyric acid, isovaleric acid, etc.) in rat feces were assayed by gas chromatography. […] Therefore, berberine is capable of increasing gut short-chain fatty acid level in rats fed normal diet or high fat diet.” for “period.”
# [2] = Obesity phenotype of rats fed normal or high fat diet: body weight, adiposity index, food intake, liver and pancreas
# Source text: as §1, with “period. The body weight of all four groups of rats were monitored during the duration of the experiments and analyzed. […] At the end of experiment, animals were euthanized. Fasting body weight, epididymal fat weight, and perirenal fat weight were measured.” for “period.”
# [3] = Insulin sensitivity in rats: FBG, FINS, HOMA-IR, oral glucose tolerance test, intraperitoneal insulin tolerance test
# Source text: as §1, with “period. The fasting blood glucose (FBG) and fasting insulin in serum (FINS) were measured for all four experimental groups of rats. […] In order to further examine insulin sensitivity, oral glucose tolerance test and intraperitoneal injection of insulin tolerance test were conducted, and the results are shown in FIG. 5D, and 5E, respectively.” for “period.”
# [4] = Systemic inflammation level in rats: serum LBP, MCP-1, leptin, adiponectin
# Source text: as §1
# In order to evaluate the systemic inflammation levels of all four experimental groups of rats, the serum levels of lipopolysaccharide (LPS)-binding protein (LBP), monocyte chemoattractant protein-1 (MCP-1), leptin, and adiponectin were measured, and results are shown in FIG. 6.
# MCP-1 is a pro-inflammatory cytokine that functions in chemotaxis and activation of monocytes/macrophages. Occurrence and development of many inflammation-related diseases are closely related to MCP-1, including atherosclerosis, obesity, type 2 diabetes, arthritis, sepsis, and chronic bacterial infection.
# Leptin is a hormone secreted by adipose tissue, and broadly participates in lipid, glucose, and energy metabolism.
# The adiponectin levels in all four groups were analyzed. […] Therefore, berberine improves gut microbiota population, reduces LPB, MCP-1, and lpetin level, and increases adiponectin secretion. TABLE 1 16S rRNA gene V3 region sequence of those bacteria enriched by berberine.
smiles,measurement,setting,value
COc1ccc2cc3[n+](cc2c1OC)CCc1cc2c(cc1-3)OCO2 [berberine],number of berberine-related OTU identified (RDA),gut microbiota; FIG. 2,268 OTU
same,"share of overall changes in the gut microbiota population accounted for (PCoA, unweighted Unifrac distance)","gut microbiota; NCD and HFD rats, FIG. 1A",12.6%
same,diversity of gut microbiota population (Shannon-Wiener index),"gut microbiota; P<0.05, FIG. 1C",reduces diversity of gut microbiota population at a statistically significant level
same,number of OTU enriched (RDA),"gut microbiota; SEQ_ID_NO 1-93, TABLE 1",93 OTU
same,number of OTU suppressed or eliminated (RDA),"gut microbiota; SEQ_ID_NO 94-268, TABLE 2",175 OTU
same,effect on gut microbiota structure (PCoA),gut microbiota; normal diet group and high fat diet group,altered gut microbiota structure in both the normal diet group and high fat diet group at a statistically significant level
same,effect on levels of acetic acid and propionic acid in feces,[1],especially pronounced
same,level of gut short-chain fatty acid in feces,[1]; rats fed normal diet or high fat diet,may increase the level of gut short-chain fatty acid
same,body weight of HFD+BBR group versus normal diet group,"[2]; 100 mg/kg, entire experiment, P>0.05",no statistically significant difference
same,effect on liver and pancreas / side effect of long term use,[2]; 18 weeks,no obvious side effect
same,adiposity index ([epididymal fat weight+perirenal fat]/fasting weight×100),"[2]; 18 weeks, HFD, FIG. 4B",significantly reduces adiposity index
same,body weight of rats fed a normal diet,"[2]; NCD+BBR, FIG. 4","influences, to a certain degree"
same,body weight growth,"[2]; intragastric 100 mg/kg, 18 weeks, especially rats fed high fat diet, FIG. 4A",effectively limits rat body weight growth
same,food intake (calorie intake),"[2]; oral 100 mg/kg body weight, especially rats fed a high fat diet, FIG. 4C",significant inhibitory effect on rat food intake
same,oral glucose tolerance test,"[3]; 100 mg/kg body weight, 18 weeks HFD, FIG. 5D",significantly prevented the loss of glucose tolerance
same,intraperitoneal injection of insulin tolerance test,"[3]; 100 mg/kg body weight, 18 weeks HFD, FIG. 5E",significantly prevented the loss of glucose tolerance and insulin tolerance
same,fasting insulin in serum (FINS),"[3]; 100 mg/kg body weight, HFD+BBR, FIG. 5B",significantly reduced
same,HOMA insulin resistance index,"[3]; 100 mg/kg body weight, HFD, P<0.05, FIG. 5C",prevented the formation of insulin resistance
same,fasting blood glucose (FBG) reduction,"[3]; HFD rats, P<0.05, FIG. 5A",significant
same,fasting blood glucose (FBG),"[3]; NCD and HFD rats, FIG. 5A",effectively reduced FBG
same,serum lipopolysaccharide (LPS)-binding protein (LBP),"[4]; 100 mg/kg, HFD, P<0.05, FIG. 6A",significantly abrogated the increase of serum LBP
same,serum MCP-1 level,"[4]; HFD rats, FIG. 6B",significantly reduced
same,serum MCP-1 level versus NCD group,[4]; HFD+BBR versus NCD,even lower than that of NCD group
same,serum leptin level,"[4]; especially rats fed a HFD, P<0.05, FIG. 6C",significantly reduced the serum leptin level
same,adiponectin level normalized against body fat weight,"[4]; rats fed a HFD, P<0.01, FIG. 6D",significantly increased adiponectin level
